US11999746B2, “Compounds” (GlaxoSmithKline Intellectual Property Development Limited, priority 2014, dated 2024)

What was measured:
[1] = target: T1, recombinant human Lp-PLA2 (Homo sapiens, UniProt Q13093); test: (1a) PED6 assay, recombinant human Lp-PLA2 (rhLp-PLA2); assay type: biochemical; details: Examples 1-167 and 413-430 were tested here, one experiment or average of multiple experiments, read-out: rhLp-PLA2 (pIC50) (converted)
T1 sequence (Q13093 22-441): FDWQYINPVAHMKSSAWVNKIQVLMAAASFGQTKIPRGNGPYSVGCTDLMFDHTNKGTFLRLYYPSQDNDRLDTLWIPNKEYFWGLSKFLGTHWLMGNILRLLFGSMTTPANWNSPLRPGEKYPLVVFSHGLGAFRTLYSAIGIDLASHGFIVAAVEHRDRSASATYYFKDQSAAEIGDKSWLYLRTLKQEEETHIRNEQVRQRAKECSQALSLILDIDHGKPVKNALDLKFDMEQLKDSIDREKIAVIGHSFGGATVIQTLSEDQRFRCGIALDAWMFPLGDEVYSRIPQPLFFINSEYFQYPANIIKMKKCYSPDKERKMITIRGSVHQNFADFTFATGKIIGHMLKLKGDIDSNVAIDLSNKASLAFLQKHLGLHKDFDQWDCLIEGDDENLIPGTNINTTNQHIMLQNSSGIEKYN
Source text: (1) Recombinant Human Lp-PLA2 Assays (rhLp-PLA2)
N-((6-(2,4-Dinitrophenyl)amino)-hexanoyl)-2-(4,4-difluoro-5,7-dimethyl-4-bora-3a,4a-diaza-s-indacene-3-pentanoyl)-1-hexadecanoyl-sn-glycero-3-phosphoethanolamine, triethylammonium salt (PED6) is a commercially available fluorescently-labeled phospholipid, which is commercially available from Invitrogene and Molecular Probes. There is a quenching […] and a Bodipy fluorescein (FL) group in the sn2 position. Upon cleavage with Lp-PLA2, the Bodipy FL group is liberated and then may result in an increase in fluorescence. Inhibitors of Lp-PLA2 therefore prevent this cleavage and no fluorescent increase is observed.
The PED6 assay was run as an unquenched 10 μL assay. The source plate containing the compounds to be tested was prepared by making 1:3 (by volume) serial dilution of the compounds within DMSO on 384-well microplate. Then, 0.01 μL of the compounds on compound source plate were transferred into 384 well Greiner 784076 (black) plates using ECHO liquid dispenser. 5 μL of recombinant human Lp-PLA2 enzyme (4 nM) rhLp-PLA2 in assay buffer of 50 mM HEPES, pH 7.4, 150 mM NaCl, 1 mM CHAPS) was added to each well of the plate. Plates were centrifuged for 10 sec at 500 rpm. After 30 minutes preincubation, 5 μL of substrate (4 μM PED6 [from 5 mM DMSO stock] in assay buffer of 50 mM HEPES, pH 7.4, 150 mM NaCl, 1 mM CHAPS) was added to 384 well Greiner 784076 (black) plates. Plates were centrifuged for 10 sec at 500 rpm. The plate was covered to protect it from light and incubated for 20 min at room temperature. The plates were read for fluorescence intensity at ex: 480/em: 540 using ViewLux microplate imager for Envision spectrofluroimeters. pIC50 data, curve and QC analysis was conducted by using XL fit module in Excel.

[2] = target: T2, Lp-PLA2 in human plasma (Homo sapiens, UniProt Q13093); test: (3a) Lp-PLA2 human plasma Thio-PAF assay; assay type: biochemical; details: (3a) Thio-PAF assay, pooled human plasma; Examples 1-265 and 413-430 were tested here; read-out: pIC50 in the Lp-PLA2 human plasma assay (converted)
T2 construct: from tissue; host or cells: pooled human plasma
T2 sequence (Q13093 22-441): T1 sequence (Q13093 22-441)
Method in brief: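 Endogenous Lp-PLA2 activity in frozen pooled human plasma measured as thiol release from 2-thio-PAF, detected by CPM fluorescence (ex 380/em 485). Compound preincubation 30 min; 2-min reaction in HEPES pH 7.4 buffer with NEM, stopped with 5% TFA, read 40 min later at room temperature; values as pIC50.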

Row | IC50 [1] [nM] | IC50 [2] [nM] | Compound
1 | ≤ 100 | ≤ 10000 | N#Cc1cccc(COc2cc3n(c(=O)n2)CC2CCCCN32)c1 (centres unmarked) [Example E6, 3-(((1-Oxo-6,7,8,9,9a,10-hexahydro-1H-pyrido[1′,2′:3,4]imidazo[1,2-c]pyrimidin-3-yl)oxy)methyl)benzonitrile]
2 | ≤ 100 | ≤ 10000 | O=c1nc(OCc2ccc(F)cc2F)cc2n1CC1CCCCN21 (centres unmarked) [Example E8, 3-((2,4-Difluorobenzyl)oxy)-6,7,8,9,9a,10-hexahydro-1H-pyrido[1′,2′:3,4]imidazo[1,2-c] pyrimidin-1-one]
3 | ≤ 1 | ≤ 100 | N#Cc1cc(COc2cc3n(c(=O)n2)CC2CCCCN32)ccc1Oc1cncc(C(F)(F)F)c1 (centres unmarked) [Example E10, 5-(((1-Oxo-6,7,8,9,9a,10-hexahydro-1H-pyrido[1′,2′:3,4]imidazo[1,2-c]pyrimidin-3-yl)oxy)methyl)-2-((5-(trifluoromethyl)pyridin-3-yl)oxy)benzonitrile]
4 | ≤ 1 | ≤ 100 | N#Cc1cc(Oc2ccc(COc3cc4n(c(=O)n3)CC3CCCCN43)cc2F)ccc1Cl (centres unmarked) [Example E11, 2-Chloro-5-(2-fluoro-4-(((1-oxo-6,7,8,9,9a,10-hexahydro-1H-pyrido[1′,2′:3,4]imidazo[1,2-c]pyrimidin-3-yl)oxy)methyl)phenoxy)benzonitrile]
5 | ≤ 1 | ≤ 100 | N#Cc1cc(COc2cc3n(c(=O)n2)CC2CCCCN32)ccc1Oc1cccc(C(F)(F)F)c1 (centres unmarked) [Example E12, 5-(((1-Oxo-6,7,8,9,9a,10-hexahydro-1H-pyrido[1′,2′:3,4]imidazo[1,2-c]pyrimidin-3-yl)oxy)methyl)-2-(3-(trifluoromethyl)phenoxy)benzonitrile]
6 | ≤ 100 | ≤ 10000 | Cc1cc(COc2cc3n(c(=O)n2)CC2CCCCN32)cc(F)c1F (centres unmarked) [Example E14, 3-((3,4-Difluoro-5-methylbenzyl)oxy)-6,7,8,9,9a,10-hexahydro-1H pyrido[1′,2′:3,4]imidazo-[1,2-c]pyrimidin-1-one]
7 | ≤ 100 | ≤ 10000 | N#Cc1cc(F)cc(COc2cc3n(c(=O)n2)CC2CCCCN32)c1 (centres unmarked) [Example E15, 3-Fluoro-5-(((1-oxo-6,7,8,9,9a,10-hexahydro-1H-pyrido[1′,2′:3,4]imidazo[1,2-c]pyrimidin-3-yl)oxy)methyl)benzonitrile]
8 | ≤ 100 | ≤ 10000 | O=c1nc(OCc2cc(F)c(F)c(Cl)c2)cc2n1CC1CCCCN21 (centres unmarked) [Example E16, 3-((3-Chloro-4,5-difluorobenzyl)oxy)-6,7,8,9,9a,10-hexahydro-1H-pyrido[1′,2′:3,4] imidazo[1,2-c]pyrimidin-1-one]
9 | ≤ 1 | ≤ 100 | O=c1nc(OCc2ccc(Oc3ccnc(C(F)(F)F)c3)c(F)c2)cc2n1CC1CCCCN21 (centres unmarked) [Example E17, 3-((3-Fluoro-4-((2-(trifluoromethyl)pyridin-4-yl)oxy)benzyl)oxy)-6,7,8,9,9a,10-hexahydro-1H-pyrido[1′,2′:3,4]imidazo[1,2-c]pyrimidin-1-one]
10 | ≤ 100 | ≤ 10000 | O=c1nc(OCc2ccc(Oc3ccc(F)c(F)c3)c(F)c2)cc2n1CC1CCCCN21 (centres unmarked) [Example E18, 3-((4-(3,4-Difluorophenoxy)-3-fluorobenzyl)oxy)-6,7,8,9,9a,10-hexahydro-1H-pyrido[1′,2′:3,4]imidazo[1,2-c]pyrimidin-1-one]
11 | ≤ 1 | ≤ 100 | N#Cc1cc(COc2cc3n(c(=O)n2)CC2CCCCN32)ccc1Oc1ccc(F)c(F)c1 (centres unmarked) [Example E19, 2-(3,4-Difluorophenoxy)-5-(((1-oxo-6,7,8,9,9a,10-hexahydro-1H-pyrido[1′,2′:3,4]imidazo-[1,2-c]pyrimidin-3-yl)oxy)methyl)benzonitrile]
12 | ≤ 1 | ≤ 100 | N#Cc1ccc(Oc2ccc(COc3cc4n(c(=O)n3)CC3CCCCN43)cc2C#N)cc1Cl (centres unmarked) [Example E20, 2-Chloro-4-(2-cyano-4-(((1-oxo-6,7,8,9,9a,10-hexahydro-1H-pyrido[1′,2′:3,4]imidazo[1,2-c]pyrimidin-3-yl)oxy)methyl)phenoxy)benzonitrile]
13 | ≤ 1 | ≤ 100 | O=c1nc(OCc2cc(F)c(Oc3cncc(C(F)(F)F)c3)c(F)c2)cc2n1CC1CCCCN21 (centres unmarked) [Example E21, 3-((3,5-Difluoro-4-((5-(trifluoromethyl)pyridin-3-yl)oxy)benzyl)oxy)-6,7,8,9,9a,10-hexahydro-1H-pyrido[1′,2′:3,4]imidazo[1,2-c]pyrimidin-1-one]
14 | ≤ 1 | ≤ 10000 | O=c1nc(OCc2ccc(Oc3ccc(C(F)(F)F)nc3)c(F)c2)cc2n1CC1CCCCN21 (centres unmarked) [Example E22, 3-((3-Fluoro-4-((6-(trifluoromethyl)pyridin-3-yl)oxy)benzyl)oxy)-6,7,8,9,9a,10-hexahydro-1H-pyrido[1′,2′:3,4]imidazo[1,2-c]pyrimidin-1-one]
15 | ≤ 1 | ≤ 100 | N#Cc1cc(COc2cc3n(c(=O)n2)CC2CCCCN32)ccc1Oc1ccc(C(F)(F)F)cc1 (centres unmarked) [Example E23, 5-(((1-Oxo-6,7,8,9,9a,10-hexahydro-1H-pyrido[1′,2′:3,4]imidazo[1,2-c]pyrimidin-3-yl)oxy)methyl)-2-(4-(trifluoromethyl)phenoxy)benzonitrile]
16 | ≤ 1 | ≤ 100 | N#Cc1cc(COc2cc3n(c(=O)n2)CC2CCCCN32)ccc1Oc1ccc(Cl)c(F)c1 (centres unmarked) [Example E24, 2-(4-Chloro-3-fluorophenoxy)-5-(((1-oxo-6,7,8,9,9a,10-hexahydro-1H pyrido-[1′,2′:3,4]imidazo[1,2-c]pyrimidin-3-yl)oxy)methyl)benzonitrile]
17 | ≤ 1 | ≤ 100 | O=c1nc(OCc2cc(F)c(Oc3ccc(C(F)(F)F)nc3)c(F)c2)cc2n1CC1CCCCN21 (centres unmarked) [Example E25, 3-((3,5-Difluoro-4-((6-(trifluoromethyl)pyridin-3-yl)oxy)benzyl)oxy)-6,7,8,9,9a,10-hexahydro-1H-pyrido[1′,2′:3,4]imidazo[1,2-c]pyrimidin-1-one]
18 | ≤ 1 | ≤ 100 | O=c1nc(OCc2cc(F)c(Oc3ccnc(Cl)c3)c(F)c2)cc2n1CC1CCCCN21 (centres unmarked) [Example E26, 3-((4-((2-Chloropyridin-4-yl)oxy)-3,5-difluorobenzyl)oxy)-6,7,8,9,9a,10-hexahydro-1H-pyrido[1,2′:3,4]imidazo[1,2-c]pyrimidin-1-one]
19 | ≤ 100 | ≤ 10000 | O=c1nc(OCc2ccc(F)c(Cl)c2)cc2n1CC1CCCCN21 (centres unmarked) [Example E27, 3-((3-Chloro-4-fluorobenzyl)oxy)-6,7,8,9,9a,10-hexahydro-1H-pyrido[1′,2′:3,4]imidazo[1,2 c]pyrimidin-1-one]
20 | ≤ 1 | ≤ 100 | N#Cc1cc(Oc2ccc(COc3cc4n(c(=O)n3)CC3CCCCN43)cc2F)cc(C(F)(F)F)c1 (centres unmarked) [Example E28, 3-(2-Fluoro-4-(((1-oxo-6,7,8,9,9a,10-hexahydro-1H-pyrido[1′,2′:3,4]imidazo[1,2-c]pyrimidin-3-yl)oxy)methyl)phenoxy)-5-(trifluoromethyl)benzonitrile]
21 | ≤ 100 | ≤ 10000 | O=c1nc(OCc2cc(F)cc(Cl)c2)cc2n1CC1CCCCN21 (centres unmarked) [Example E29, 3-((3-Chloro-5-fluorobenzyl)oxy)-6,7,8,9,9a,10-hexahydro-1H-pyrido[1′,2′:3,4]imidazo[1,2-c]pyrimidin-1-one]
22 | ≤ 100 | ≤ 100 | O=c1nc(OCc2ccc(F)c(F)c2)cc2n1C[C@H]1CCCCN21 [Example E30, (R)-3-((3,4-Difluorobenzyl)oxy)-6,7,8,9,9a,10-hexahydro-1H-pyrido[1′,2′:3,4]imidazo[1,2-c]pyrimidin-1-one]
